The compounds below were run against T1, aldosterone receptor (Rattus norvegicus, UniProt P22199) (assay: Binding inhibition test for aldosterone receptor ([3H]aldosterone, rat renal soluble fraction)). Conditions: [3H]aldosterone 2 nM, rat renal soluble fraction, in the presence of 2 μM RU-486, 4° C. about 18 hours; read-out: MR IC50.
T1 construct: centrifuged at 105,000 g for 30 minutes, and then a supernatant was collected as a renal soluble fraction; from tissue; host or cells: rat kidney (adrenalectomized rat), 105,000 g supernatant (cytosol)
T1 sequence (P22199 1-981): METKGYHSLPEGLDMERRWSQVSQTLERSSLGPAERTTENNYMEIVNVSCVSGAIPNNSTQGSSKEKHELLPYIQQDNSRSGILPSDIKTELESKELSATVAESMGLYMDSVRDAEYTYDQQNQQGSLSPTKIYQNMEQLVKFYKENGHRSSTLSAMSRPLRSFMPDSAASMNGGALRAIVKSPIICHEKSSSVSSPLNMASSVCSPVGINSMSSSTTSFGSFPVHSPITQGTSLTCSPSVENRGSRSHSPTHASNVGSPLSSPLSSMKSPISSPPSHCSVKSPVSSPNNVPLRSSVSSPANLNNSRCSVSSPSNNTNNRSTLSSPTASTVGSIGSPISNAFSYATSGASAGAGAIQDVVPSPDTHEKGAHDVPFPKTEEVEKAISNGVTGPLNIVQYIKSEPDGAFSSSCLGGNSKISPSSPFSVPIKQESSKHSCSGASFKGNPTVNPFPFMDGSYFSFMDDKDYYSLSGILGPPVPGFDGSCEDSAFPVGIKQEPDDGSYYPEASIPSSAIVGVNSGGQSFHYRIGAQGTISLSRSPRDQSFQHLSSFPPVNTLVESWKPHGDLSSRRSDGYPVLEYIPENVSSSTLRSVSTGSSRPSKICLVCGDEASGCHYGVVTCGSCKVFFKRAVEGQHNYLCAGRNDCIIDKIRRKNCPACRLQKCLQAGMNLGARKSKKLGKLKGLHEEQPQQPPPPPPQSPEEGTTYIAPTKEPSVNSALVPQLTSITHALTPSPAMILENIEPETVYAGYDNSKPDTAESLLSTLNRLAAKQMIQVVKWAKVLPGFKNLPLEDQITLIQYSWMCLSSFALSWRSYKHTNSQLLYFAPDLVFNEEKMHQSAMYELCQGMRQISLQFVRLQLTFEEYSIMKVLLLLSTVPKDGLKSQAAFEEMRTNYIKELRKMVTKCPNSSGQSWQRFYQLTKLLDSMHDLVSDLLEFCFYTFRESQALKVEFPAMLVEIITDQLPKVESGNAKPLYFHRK
Procedure: Binding Inhibition Test for Aldosterone Receptor
A rat was layed open in flank regions (on both sides) to remove both adrenal glands. After stitching up the incision, the rat was returnd to a breeding cage again. After removing the kidney from the rat reared for about 3 to 5 days, the kidney was homogenized in 0.1 M Tris-HCl, 0.25M sucrose, 0.1M Na2MoO4 and 2 mM DTT buffer solution (pH7.4). The resultant was centrifuged at 105,000 g for 30 minutes, and then a supernatant was collected as a renal soluble fraction.
The rat renal soluble fraction (0.5 to 1.5 mg), a labeled ligand [^3H] aldosterone (2 nM) and a test article were reacted in the presence of 2 μM RU-486 (glucocorticoid receptor antagonist) in 100 μL of total amounts at 4° C. for about 18 hours. Afterwards, to the reaction solution was added 50 μL of 5% dextran-coated activated charcoal, and the mixture was immingled, and then centrifuged at 3,000 g for 5 minutes. Then, a supernatant (100 μL) was collected and mixed with a liquid scintillator ACS-II (Amersham) (3.5 mL), and then analyzed its radioactivity by a liquid scintillation counter (manufactured by Packard, Tri Carb 2700TR). A non-specific binding was obtained by addition of 2 μM aldosterone to a reaction solution. […]
Binding inhibition rate (%)=100−{(B−N)/(B0−N)}×100
B: labeled ligand binding amounts in the presence of a test article and a labeled ligand
B0: labeled ligand binding amounts in the absence of a test article
N: labeled ligand binding amounts in the presence of excess aldosterone (2 μM)
Test example 1 was carried out for compounds obtained in the Examples.

Point of comparison: `CCOc1cc(C(=O)Nc2ccc(S(N)(=O)=O)c(OC)c2)ccc1-c1ccccc1C(F)(F)F` [Example 60], IC50 200 nM. Against it:
- COc1cc(NC(=O)c2ccc(-c3ccccc3C(F)(F)F)c(C)c2)ccc1S(N)(=O)=O [Example 7] — 1.8-fold higher, 350 nM
- COc1cc(NC(=O)c2ccc(-c3ccccc3C(F)(F)F)cc2)ccc1S(N)(=O)=O [Example 10] — 2.5-fold higher, 500 nM
- COc1cc(NC(=O)c2ccc(-c3ccccc3OC(F)(F)F)cc2)ccc1S(N)(=O)=O [Example 12] — 3-fold higher, 610 nM
- COc1cc(NC(=O)c2ccc(-c3ccccc3C)cc2)ccc1S(N)(=O)=O [Example 14] — 24-fold higher, 4700 nM
- COc1cc(NC(=O)c2ccc(-c3ccc(F)cc3C(F)(F)F)cc2)ccc1S(N)(=O)=O [Example 17] — 8.5-fold higher, 1700 nM
- COC(=O)c1ccccc1-c1ccc(C(=O)Nc2ccc(S(N)(=O)=O)c(OC)c2)cc1 [Example 19] — 16-fold higher, 3300 nM
- CCOC(=O)c1ccccc1-c1ccc(C(=O)Nc2ccc(S(N)(=O)=O)c(OC)c2)cc1 [Example 20] — 2.8-fold higher, 550 nM
- COc1cc(NC(=O)c2ccc(-c3ccccc3CN3CCOCC3)cc2)ccc1S(N)(=O)=O [Example 22] — 8-fold higher, 1600 nM
- COC(=O)c1cc(OC)ccc1-c1ccc(C(=O)Nc2ccc(S(N)(=O)=O)c(OC)c2)cc1 [Example 24] — 12-fold higher, 2400 nM
- COc1cc(NC(=O)c2ccc(-c3ccc(O)cc3C(F)(F)F)cc2)ccc1S(N)(=O)=O [Example 26] — 2.5-fold higher, 490 nM
- COCc1ccccc1-c1ccc(C(=O)Nc2ccc(S(N)(=O)=O)c(OC)c2)cc1 [Example 28] — 15-fold higher, 3000 nM
- COc1cc(NC(=O)c2ccc(-c3ccccc3C(=O)OC(C)(C)C)cc2)ccc1S(N)(=O)=O [Example 31] — within 1.5-fold, 250 nM
- COc1cc(NC(=O)c2ccc(-c3ccccc3C3CCCCC3)cc2)ccc1S(N)(=O)=O [Example 35] — 1.8-fold higher, 350 nM
- COc1cc(NC(=O)c2ccc(-c3ccccc3C(C)C)cc2)ccc1S(N)(=O)=O [Example 36] — 7-fold higher, 1400 nM
- COc1cc(NC(=O)c2ccc(-c3ccccc3OC(C)C)cc2)ccc1S(N)(=O)=O [Example 39] — 6-fold higher, 1200 nM
- COc1cc(NC(=O)c2ccc(-c3ccccc3OC(F)(F)C(F)F)cc2)ccc1S(N)(=O)=O [Example 40] — 1.9-fold higher, 390 nM
- COc1cc(NC(=O)c2ccc(-c3ccccc3-c3cccs3)cc2)ccc1S(N)(=O)=O [Example 42] — not separable, < 1000 nM
- COc1cc(NC(=O)c2ccc(-c3ccccc3-c3nc(C)no3)cc2)ccc1S(N)(=O)=O [Example 46] — 15-fold higher, 3000 nM
- COc1cc(NC(=O)c2ccc(-c3ccccc3C(F)(F)F)cc2)ccc1S(=O)(=O)N(C)C [Example 50] — 3.5-fold higher, 700 nM
- CNS(=O)(=O)c1ccc(NC(=O)c2ccc(-c3ccccc3C(F)(F)F)cc2)cc1OC [Example 51] — the same, 200 nM
- CCc1ccccc1-c1ccc(C(=O)Nc2ccc(S(N)(=O)=O)c(OC)c2)cc1 [Example 56] — 2.6-fold higher, 520 nM
- COc1cc(NC(=O)c2ccc(-c3ccccc3SC)cc2)ccc1S(N)(=O)=O [Example 57] — 3.2-fold higher, 650 nM
- COc1cc(C(=O)Nc2ccc(S(N)(=O)=O)c(OC)c2)ccc1-c1ccccc1C(F)(F)F [Example 59] — within 1.5-fold, 260 nM
- COc1cc(NC(=O)c2ccc(-c3ccccc3C(F)(F)F)c(OCc3ccccc3)c2)ccc1S(N)(=O)=O [Example 62] — 9.5-fold higher, 1900 nM
- CC(=O)OCc1cc(C(=O)Nc2ccc(S(C)(=O)=O)cc2)ccc1-c1ccccc1C(F)(F)F [Example 64] — 2-fold higher, 400 nM
- CS(=O)(=O)c1ccc(NC(=O)c2ccc(-c3ccccc3C(F)(F)F)c(CO)c2)cc1 [Example 65] — within 1.5-fold, 250 nM
- COc1cc(NC(=O)c2ccc(-c3ccccc3C(F)(F)F)c(COC(C)=O)c2)ccc1S(N)(=O)=O [Example 68] — within 1.5-fold, 210 nM
- COc1cc(NC(=O)c2ccc(-c3ccccc3C(F)(F)F)c(CO)c2)ccc1S(N)(=O)=O [Example 69] — within 1.5-fold, 220 nM
- COc1cc(NC(=O)c2ccc(-c3ccccc3C(F)(F)F)c(CN(C)C)c2)ccc1S(N)(=O)=O [Example 72] — 2.6-fold higher, 530 nM
- COc1cc(NC(=O)c2ccc(-c3ccccc3C(F)(F)F)c(CN3CCCC3)c2)ccc1S(N)(=O)=O [Example 75] — 4.4-fold higher, 880 nM

From patent publication US20130116227A1, “BIARYL AMIDE DERIVATIVE OR PHARMACEUTICALLY ACCEPTABLE SALT THEREOF” (DAINIPPON SUMITOMO PHARMA CO., LTD., priority 2010, published 2013)
